The values that follow come from patent publication US20050170019A1, “Methods, compositions and devices for inducing stasis in cells” (Fred Hutchinson Cancer Research Center, priority 2003, published 2005).

Data set [1] has as its system human keratinocytes. The experiment in a line: Preservation of human skin in carbon monoxide: keratinocyte growth and colony formation. The format is cell-based. The method, then: Three human foreskins were obtained for this purpose. The foreskin tissue was preserved in keratinocyte growth medium (KGM) containing insulin, EGF (0.1 ng/ml), hydrocortisone ([…]) and bovine pituitary extract (approx. 50 micrograms/ml of protein). Foreskins were rinsed in PBS, and excess fatty tissue was removed. Each foreskin sample was divided into 2 equal pieces. Each piece was placed into a separate container containing a solution of PBS with 24 mg/ml of Dispase II (from Bacillus Polymyxa EC 3.4.24.4:Roche Diagnostics Corp., Indianapolis, Ind.). One container (containing a foreskin piece in PBS with Dispase II) was kept in a humid chamber in a fume hood. The other container (with the other half of the foreskin in PBS with Dispase II) was placed in the same fume hood in an environmental chamber perfused with humidified 100% CO. Both samples were maintained at room temperature for 24 hrs. Methods used to establish defined atmospheric conditions were identical to those used in Example 1.
Following the 24 hr exposure to normoxia or 100% CO, keratinocytes were isolated from the foreskins according to the method described by Boyce et al. (1983; 1985; each of which is incorporated herein by reference in its entirety). Briefly, the epidermis from each foreskin sample was removed to a fresh dish containing PBS. The epidermis was minced and homogenized prior to incubation in 3 ml of 0.05% Trypsin, 1 mM EDTA for 5 minutes, at room temperature, to separate basal cells from the epidermis. After incubation, 6 ml of 400 μg/ml (micrograms per ml) Soybean Trypsin Inhibitor, 1 mg/ml BSA was added and the samples were centrifuged at 900 RPM. The supernatant from each sample was discarded and the sample pellets were resuspended in 10 ml of KGM. Each sample was split into two 10 cm plates each of which contained 5 ml KGM and 100 μl of HEPES pH 7.3 (N-2-hydroxyethylpiperazine-N′-2-ethane sulfonic acid). The plates were incubated in a 37° C. incubator perfused with 95% room air, 5% carbon dioxide for five days.
Cells were inspected visually using an inverted phase contrast microscope. […] Quantitation of the number of viable keratinocytes as judged by colony formation was quantified for two of the three foreskins.

Data set [2] has as its system C. elegans embryos. The experiment in a line: Cell biological analysis: arrest of embryogenesis (suspended animation) in carbon monoxide-based atmospheres. The format is in vivo. From the text:
(§1) To test whether induced, reversible stasis could be achieved in C. elegans nematodes, 2-cell C. elegans embryos, L3 larvae or adult nematodes were collected and exposed to either an environment of effectively 100% CO, an environment of 100% N2, an environment comprising 500 ppm oxygen balanced with carbon monoxide, or to environments comprising 100, 500 or 1000 ppm oxygen balanced with nitrogen at room temperature. Nematodes were visualized using differential interference contrast microscopy (also known as Nomarski optics). Images were collected and analyzed using NIH image and Adobe Photoshop 5.5. Embryos are approximately 50 μm in length.
Cell biological analysis. To determine the extent of developmental progression in nitrogen-based atmospheres (Table 2), 2-cell embryos were exposed to various degrees of hypoxia as described above and were either immediately photographed, or photographed following a 12 hr recovery period in a humid chamber. To determine whether embryos arrested in carbon monoxide-based atmospheres, 2-cell embryos were aged in room air for two hours and were either photographed immediately or put into 100% carbon monoxide or 0.05 kPa O2/CO for 24 hours and photographed immediately following the exposure. In all cases, DIC microscopy was done by placing embryos under a cover slip on a thin 1% agarose pad and viewing on a Zeiss axioscope. Photographs were taken using RS Image and Adobe Photoshop software.

Data set [3] relates to C. elegans embryos. The experiment in a line: Viability of nematodes in carbon monoxide based atmospheres. The settings on record: for viability (survival) to adulthood: 0.25 kPa O2/CO. The format is in vivo.
From the text: To achieve specific atmospheric conditions the following apparatus was used: a glass syringe barrel having a tip with a locking device such as a LUER-LOK with the large opening of the barrel sealed with a custom-machined steel and rubber fitting to make an airtight seal was locked to via locking device to the inlet port of an environmental chamber having an inlet and an outlet port each fitted with a locking devices such as a LUER-LOK fitting. A defined gas was humidified and provided to the environmental chamber by first venting the gas from a compressed tank (Byrne Specialty Gas, Seattle, Wash.) through a gas washing bottle (500 ml Kimex) filled with double distilled water. The gas washing bottle was connected to the environmental chamber past a gas-flow meter. A gas flow meter was used to provide a regulated 70 cc/min flow through the environmental chamber throughout the 24 hr incubation.
as §1
Environmental chambers and apparatuses. Oxygen deprivation experiments were carried out using a custom atmospheric chamber designed by W. Van Voorhies (Van Voorhies et al., 2000). The chamber is a 30 mL glass syringe (Fisher #14-825-10B) fitted with a custom steel stopper that is lined with two viton o-rings to ensure a tight seal. The stopper is bored through and has a steel lure lock on the exterior face so that a hose carrying compressed gas can be attached. A defined gas mixture is delivered to the chamber at a constant pressure and flow rate from compressed tanks by passing first through a rotometer (Aalborg, flow-tube number 032-41ST) or mass flow controller (Sierra Instruments #810) to monitor flow rate and then through a 500 ml gas washing bottle (Fisher #K28220-5001) containing 250 ml water to hydrate the gas. ¼” OD nylon (Cole-Parmer #P-06489-06) or FEP (Cole-Parmer #A-06450-05) tubing was used and connections between tubing and the regulators and between the tubing and the rotometers were made with brass John-Guest-type fittings (Byrne Gas). All other connections were made with either microflow quick-connect fittings (Cole-Parmer #A-06363-57, #A-06363-52) or standard lure fittings (Cole-Parmer #A-06359-37, #A-06359-17).
Viability of nematodes in hypoxia. […] Log-phase, adult C. elegans were picked into a drop of sterile water containing 100 μg/ml ampicillin, 15 μg/ml tetracycline and 200 μg/ml streptomycin on a glass plate. Adults were chopped with a razor blade and 2-cell embryos were picked using a mouth pipet. 30-60 2-cell embryos were transferred to a small glass boat (custom made to fit atmospheric chambers, Avalon Glass Works, Seattle Wash.) filled with 3 ml of 1% agarose in M9. Boats were then placed into a humid chamber for 2 hours to allow the embryos to age and then placed into the environmental chamber. The environmental chambers were continuously perfused at room temperature with either pure N2 (grade 4.5), 100 ppm O2/N2, 500 ppm O2/N2, 1000 ppm O2/N2, or 5000 ppm O2/N2 at 70 cc/min for 24 hrs. Following exposure, agarose chunks containing the embryos were cut out of the boat and placed with embryos facing up onto a medium-sized NGM plate seeded with E. coli (OP50). Embryos were scored for hatching 24 hours after exposure and hatched L1's were transferred to the surface of the NGM plate and followed to adulthood. Animals that could not be accounted for were dropped from the total. […]

Data set [4] has as its system humans. The settings on record: cited from earlier work.

Like-named read-outs stand apart in the source and are kept apart here.

As for `[C-]#[O+]` [carbon monoxide], the Total colonies in data set [1] (Foreskin 1, 100% CO 24 hrs) is 542 colonies (many of which were very; in data set [1] (Foreskin 2, 100% CO 24 hrs), 780 colonies (many of which were very. In data set [1] (exposure to 100% CO), the “survival of human keratinocytes (FIG. 1)” value is reported as “survive”. Moreover, in data set [1] (human skin, 100% CO, after 24 hrs), the “survival of skin cells in CO relative to room air” value is on record as 100 fold. Further, the “growth of keratinocyte populations (visual inspection)” value in data set [1] (three foreskins, 24 hr 100% CO at room temperature, then five days culture) is listed as “significant growth”. The embryogenesis during exposure result in data set [2] (embryos, 0.05 kPa O2 balanced with carbon monoxide) is reported as “arrested embryogenesis”. The “progression through embryogenesis during exposure” value in data set [2] (embryos, 101 kPa CO) is given as “did not progress through embryogenesis”. Besides, the “induction of suspended animation” value in data set [2] (nematodes, 100% carbon monoxide) is given as “induced reversible suspended animation”. Moreover, the suspended animation result in data set [2] (wild-type and hif-1(ia04) embryos, 0.25 kPa O2 balanced with carbon monoxide) is “entered into suspended animation”. Besides, the “viability (survival) to adulthood” value is on record as 78.7% in data set [3] (N2 (wild-type) embryos, 24 hrs); 78.7% ± 21.9 in data set [3] (N2 (wild-type) embryos, 24 hrs, listed as CO); 84.0% in data set [3] (hif-1(ia04) embryos, 24 hrs); 83.9% ± 13.8 in data set [3] (hif-1(ia04) embryos, 24 hrs, listed as CO). Moreover, the viability to adulthood in data set [3] (embryos, 0.05 kPa O2 balanced with carbon monoxide, 24 hours) amounted to 96.2%. This compound yielded a survival to adulthood in data set [3] (embryos, 101 kPa CO (100% CO), 24 hrs) of 81.5%. The lethality result is “not lethal” in data set [3] (nematodes, 100% carbon monoxide, room temperature, 24 hr) and “can expire” in data set [4] (around 1000 ppm, exposure for more than around 1-2 minutes, an organism). In addition, the “suspended animation and survival” value in data set [3] (nematodes, 500 ppm oxygen balanced with carbon monoxide) is “entered into suspended animation and survived”. The “protection against hypoxia (FIG. 3)” value in data set [3] (wild-type embryos, 24 hours, 0.05 kPa O2/CO versus 0.05 kPa O2/N2) is listed as “protects against hypoxia”. For the same compound, the symptoms entry in data set [4] (50 parts per million (ppm)) was “no symptoms”; in data set [4] (200 ppm, within two-three hours), “slight headache”; in data set [4] (400 ppm, within one to two hours) it was “frontal headache”; in data set [4] (800 ppm), “dizziness, nausea, and/or convulsions within 45 minutes, and render the subject insensible within two hours”.
